Test results from PMC3847553, “Kinetic properties of “dual” orexin receptor antagonists at OX1R and OX2R orexin receptors” (Frontiers in Neuroscience, 2013).
Read-outs that look alike come from different tables or passages of the source.

How the values were obtained:
sleep wake cycle = tested on: sleep wake cycle; set-up: method as in Mang et al., 2012; conditions: ref Mang et al., 2012, cited from earlier work
OX1R = assay: FLIPR calcium assay, OX1R, species not given; assay type: cell-based; conditions: species not stated
Method: (§1) Determination of orexin A-stimulated calcium accumulation was performed over 2 days using FLIPR® (Fluorescent imaging plate reader from Molecular Devices-FLIPR384). Cells expressing either human, rat or mouse OX1R or OX2R were seeded at 8,000 cells/well in black 384 well clear bottom plates and incubated overnight at 37°C. The following day, medium was discarded and cells loaded with 50 μ l of 1 mM Fluo-4 AM (Invitrogen F14202) in dimethyl sulfoxide in working buffer (Hanks' balanced salt solution, 10 mM HEPES) and incubated for 60 min at 37°C. The loading buffer was removed and cells were washed with 100 μ l working buffer containing […], 0.1% BSA, and 2.5 mM Probenecid (pH 7.4) to remove the excess Fluo-4 AM. Working buffer was added and plates were incubated 10–15 min at room temperature. The assay plate was then transferred to the Molecular Devices-FLIPR384. The baseline calcium signal was recorded for 10 s, then the antagonist of interest was injected (10 μl at 3 times the final concentration) and the calcium signal recorded every second for 1 min, then every 2 s 40 times. Plates were then incubated at room temperature for 30 min, 1, 2, or 4 h.

OX2R = assay: FLIPR calcium assay, OX2R, species not given; assay type: cell-based; conditions: species not stated
Method: as §1

Compound	effect on sleep (sleep wake cycle; OX1R KO mice)	effect on the sleep wake cycle (sleep wake cycle; OX2R KO mice)	effect on the sleep wake cycle (sleep wake cycle; double receptor KO mice)	effect of incubation time on potency in calcium assay (OX1R)	effect of incubation time on potency in calcium assay (OX2R)
CNC(=O)[C@@H](c1ccccc1)N1CCc2cc(OC)c(OC)cc2[C@@H]1CCc1ccc(C(F)(F)F)cc1 [Almorexant]	effective	no effect on the sleep wake cycle	no effect on the sleep wake cycle	–	–
COc1ccnc(N2CCC3(CCCN(Cc4c[nH]c5ccccc45)C3=O)CC2)n1 [IPSU, 2-((1H-Indol-3-yl)methyl)-9-(4-methoxypyrimidin-2-yl)-2,9-diazaspiro[5.5]undecan-1-one]	–	–	–	constant potency values irrespective of the incubation time	constant potency values irrespective of the incubation time
